Experiment [1] addresses BCL2 WT (Homo sapiens (Human), UniProt P10415). The experiment is described as follows: TR-FRET competitive binding assay, BCL2 WT. The settings on record: Ki determined from IC50, read-out: TR_FRET EKI_Bcl2 WT. The method in brief: (§1)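 Competitive TR-FRET displacement of fluorescein-PUMA peptide (2 or 20 nM) from 0.5 nM terbium-labelled N-terminal Halo-fusion BCL2 (1-207, wild type or mutant) or BCLXL (2-196), expressed in E. coli. Buffer 50 mM Hepes pH 7.5, 150 mM NaCl, 5% DMSO; 2 h at 23°C. 520/495 nm ratio fitted over 11 points for IC50, converted to Ki.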
For orientation: In TR-FRET formats the signal depends on donor and acceptor labels being close together.

The target in experiment [2] is BCL2 G101V (Homo sapiens, UniProt P10415, G101V). The experiment is described as follows: TR-FRET competitive binding assay, BCL2 G101V. The settings on record: BCL2 G101V; Ki determined from IC50; read-out: TR_FRET EKI_Bcl2 G101V. The method in brief:
as §1

Experiment [3] concerns BCL2 G101V. The experiment is described as follows: TR-FRET competitive binding assay, BCL2 G101V. Further details: species or system human. The conditions noted are these: ratio Ki BCL2 G101V / Ki BCL2 WT. The method in brief:
as §1

Experiment [4] addresses BCL2 D103Y (Homo sapiens, UniProt P10415, D103Y). The experiment is described as follows: TR-FRET competitive binding assay, BCL2 D103Y. The settings on record: Ki determined from IC50, read-out: TR_FRET EKI_Bcl2 D103Y. The method in brief: as §1
Experiment [5] has as its target BCL2 F104I (Homo sapiens, UniProt P10415, F104I). In words: TR-FRET competitive binding assay, BCL2 F104I. The settings on record: Ki determined from IC50, read-out: TR_FRET EKI_Bcl2 F104I. The method, boiled down: as §1
In experiment [6] the target is BCL2 D111A (Homo sapiens, UniProt P10415, D111A). The experiment is described as follows: TR-FRET competitive binding assay, BCL2 D111A. The conditions noted are these: Ki determined from IC50, read-out: TR_FRET EKI_Bcl2 D111A. The method in brief: as §1
In experiment [7] the target is BCLXL WT (Homo sapiens (Human), UniProt Q07817). In words: TR-FRET competitive binding assay, BCLXL WT. The settings on record: for Ki: BCLXL WT, Ki determined from IC50, read-out: TR_FRET EKI BclxL; for TR_FRET EKI BCLxL/WT selectivty ratio: ratio Ki BCLxL / Ki BCL2 WT. The method in brief:
as §1

Experiment [8] has as its system KMS-12-PE Bcl-2 WT. In words: In vitro cytotoxicity CellTiter-Glo 48 h, KMS-12-PE Bcl-2 WT. The conditions noted are these: C50 = concentration needed to reach 50% of the cellular viability. The experiment is classed as cell-based. The method in brief:
(§2)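 Potency is expressed as C50, the compound concentration at which viability of engineered KMS-12-PE cells (Bcl-2 wild type or G101V) falls to 50%, determined from CellTiter-Glo luminescence after 48 h of treatment over 11 concentrations.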
Background: Cellular ATP, detected with luciferase, serves as a proxy for viable cell number.

For experiment [9], the system named is KMS-12-PE Bcl-2 G101V. In words: In vitro cytotoxicity CellTiter-Glo 48 h, KMS-12-PE Bcl-2 G101V. The experiment is classed as cell-based. The settings on record: for Ratio (G101V/WT): C50 KMS-12-PE Bcl-2 G101V over C50 KMS-12-PE Bcl-2 WT; for IC50: 48 h, CellTiter-Glo, C50 = concentration needed to reach 50% of the cellular viability. The method in brief: as §2

For experiment [10], the target named is CYP3A4 (Homo sapiens (Human), UniProt P08684). The experiment is described as follows: CYP3A4 inhibition determination in hepatic human microsomes. The settings on record: LC/MS-MS of specific metabolite. The class given is in vitro ADME. Here is the method: The inhibitory potential was determined on CYP3 Å4 enzyme using hepatic human microsomes. A range of concentrations (adapted based on the solubility) of the tested compound were incubated in presence of a substrate having a specific metabolite of CYP3 Å4 enzyme.
Then, the formation of the metabolite was quantified using LC/MS-MS analysis and a curve corresponding to the concentration of the metabolite in function of the concentration of the test compound allowed to the calculation of the IC50 value.

Each structure is given as a SMILES string.

In general, IC50 refers to the point on the concentration scale where inhibition reaches its midpoint.

BCLXL WT, sequence (Q07817 other isoform, or with tags, fused parts or gaps): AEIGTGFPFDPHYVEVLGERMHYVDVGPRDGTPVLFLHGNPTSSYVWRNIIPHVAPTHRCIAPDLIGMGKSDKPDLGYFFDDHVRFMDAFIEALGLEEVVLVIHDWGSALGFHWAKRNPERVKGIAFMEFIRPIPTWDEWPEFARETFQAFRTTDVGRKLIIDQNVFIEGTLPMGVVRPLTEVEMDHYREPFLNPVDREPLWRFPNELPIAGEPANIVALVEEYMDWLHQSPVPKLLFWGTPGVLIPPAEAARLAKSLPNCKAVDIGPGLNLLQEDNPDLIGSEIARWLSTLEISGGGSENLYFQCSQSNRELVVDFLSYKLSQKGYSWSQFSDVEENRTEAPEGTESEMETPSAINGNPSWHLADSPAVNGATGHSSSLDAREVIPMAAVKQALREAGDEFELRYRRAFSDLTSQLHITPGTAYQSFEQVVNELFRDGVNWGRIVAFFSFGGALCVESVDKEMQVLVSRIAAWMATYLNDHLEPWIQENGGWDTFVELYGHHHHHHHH
CYP3A4, sequence (P08684 whole entry): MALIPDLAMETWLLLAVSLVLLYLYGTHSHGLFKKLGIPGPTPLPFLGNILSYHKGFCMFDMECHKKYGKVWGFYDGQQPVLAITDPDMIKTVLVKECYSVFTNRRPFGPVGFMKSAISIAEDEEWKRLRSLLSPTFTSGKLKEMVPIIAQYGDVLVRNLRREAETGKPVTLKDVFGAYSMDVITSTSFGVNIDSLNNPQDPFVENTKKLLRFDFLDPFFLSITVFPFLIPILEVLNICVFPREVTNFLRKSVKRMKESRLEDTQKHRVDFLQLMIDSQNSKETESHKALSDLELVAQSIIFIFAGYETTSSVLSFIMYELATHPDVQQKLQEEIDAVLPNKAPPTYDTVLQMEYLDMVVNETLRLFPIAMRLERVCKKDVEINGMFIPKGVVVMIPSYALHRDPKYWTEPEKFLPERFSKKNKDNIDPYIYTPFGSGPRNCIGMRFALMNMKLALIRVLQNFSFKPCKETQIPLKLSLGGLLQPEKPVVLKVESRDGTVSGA

Take `Cc1c(C(=O)N(c2ccc(O)cc2)c2cc(C#N)n(C(F)F)c2C)cc(-c2cc3c(cc2C(=O)N2Cc4ccccc4C[C@H]2CN2CCCC2)CN(C(=O)Cc2ccc(OCCN4CCOCC4)cc2F)CC3)n1C` [Example 110]: the Ki in experiment [1] was found to be 0.04 nM; in experiment [2] it was 0.3 nM; in experiment [4], 0.11 nM; in experiment [5], 0.15 nM; in [6] it was 0.09 nM; in experiment [7], 4.1 nM. For the same compound, the “TR_FRET EKI G101V/WT selectivty ratio” value in experiment [3] stood at 6.3. In experiment [7], the “TR_FRET EKI BCLxL/WT selectivty ratio” value came out at 102.5. The IC50 in [8] (Homo sapiens, KMS-12-PE) was 0.0102 µM; in experiment [9] (Homo sapiens, KMS-12-PE), 0.0512 µM; in experiment [10], greater than 5000 nM. Further, the “Ratio (G101V/WT)” value in [9] stood at 5.02.
Consider `Cc1c(N(C(=O)c2cc(-c3cc4c(cc3C(=O)N3Cc5ccccc5C[C@H]3CN3CCCCC3)CN(C(=O)Cc3ccc(OCCN5CCOC(C)C5)cc3F)CC4)n(C)c2C)c2ccc(O)cc2)cc(C#N)n1C` (single isomer, unassigned) [Example 109, N-(5-cyano-1,2-dimethyl-1H-pyrrol-3-yl)-5-[2-(2-{2-fluoro-4-[2-((2R or S)-2-methylmorpholin-4-yl)ethoxy]phenyl}acetyl)-7-[(3S)-3-[(piperidin-1-yl)methyl]-1,2,3,4-tetrahydroisoquinoline-2-carbonyl]-1,2,3,4-tetrahydroisoquinolin-6-yl]-N-(4-hydroxyphenyl)-1,2-dimethyl-1H-pyrrole-3-carboxamide], for which the Ki is 0.04 nM in experiment [1]; 0.2 nM in experiment [2]; 0.15 nM in [4]; 0.25 nM in experiment [5]; 0.12 nM in experiment [6]; 3.9 nM in experiment [7]. In experiment [3], the “TR_FRET EKI G101V/WT selectivty ratio” value came to 5.5. Also, in experiment [7], the “TR_FRET EKI BCLxL/WT selectivty ratio” value is recorded as 90.7. The figures for the IC50 in experiment [8], in experiment [9] and in [10] were 0.0048 µM, 0.022 µM and greater than 5000 nM, respectively. The “Ratio (G101V/WT)” value in [9] was 4.38.

The values above are taken from patent US20250179047A1, “5-[7-(3,4-DIHYDRO-1H-ISOQUINOLINE-2-CARBONYL)-1,2,3,4 TETRAHYDROISOQUINOLIN-6-YL]-1H-PYRROLE-3-CARBOXAMIDE DERIVATIVES, PHARMACEUTICAL COMPOSITIONS CONTAINING THEM AND THEIR USES AS PRO-APOPTOTIC AGENTS” (LES LABORATOIRES SERVIER, priority 2022, published 2025).
